Values after ≈ are worked out from the molar mass of the structure shown.
Tests used:
Format in all cases: functional
Salmonella enterica = assay: Antibacterial activity against Salmonella enterica ATCC 14028 by micro broth dilution method
Staphylococcus aureus [1] = assay: Antibacterial activity against methicillin-resistant Staphylococcus aureus N315 by micro broth dilution method
Shigella dysenteriae = assay: Antibacterial activity against Shigella dysenteriae by micro broth dilution method
Bacillus spizizenii = assay: Antibacterial activity against Bacillus subtilis ATCC 6633 by micro broth dilution method
Pseudomonas aeruginosa = assay: Antibacterial activity against Pseudomonas aeruginosa ATCC 27853 by micro broth dilution method
Staphylococcus aureus [2] = assay: Antibacterial activity against Staphylococcus aureus ATCC 25923 by micro broth dilution method
Escherichia coli [3] = assay: Antibacterial activity against Escherichia coli DH52 by micro broth dilution method
Escherichia coli [4] = assay: Antibacterial activity against Escherichia coli JM109 by micro broth dilution method
Micrococcus luteus = assay: Antibacterial activity against Micrococcus luteus ATCC 4698 by micro broth dilution method; details: NCTC 2665
[5] = Antibacterial activity against Bacillus proteus ATCC 13315 by micro broth dilution method
Saccharomyces cerevisiae = assay: Antifungal activity against Saccharomyces cerevisiae ATCC 9763 after 24 hrs by micro broth dilution method; details: ATCC 9763, 24 h
Aspergillus flavus = assay: Antifungal activity against Aspergillus flavus ATCC 204304 after 24 hrs by micro broth dilution method; details: ATCC 204304, 24 h
Candida albicans = assay: Antifungal activity against Candida albicans ATCC 10231 after 24 hrs by micro broth dilution method; details: ATCC 10231, 24 h
[6] = Antifungal activity against Candida mycoderma ATCC 9888 after 24 hrs by micro broth dilution method; details: Candida vini
Cyberlindnera jadinii = assay: Antifungal activity against Candida utilis ATCC 9950 after 24 hrs by micro broth dilution method; details: Williopsis jadinii, ATCC 9950, 24 h

Structure (SMILES) | MIC (Salmonella enterica) [µg/mL] | MIC (Staphylococcus aureus [1]) [µg/mL] | MIC (Shigella dysenteriae) [µg/mL] | MIC (Bacillus spizizenii) [µg/mL] | MIC (Pseudomonas aeruginosa) [µg/mL] | MIC (Staphylococcus aureus [2]) [µg/mL] | MIC (Escherichia coli [3]) [µg/mL] | MIC (Escherichia coli [4]) [µg/mL] | MIC (Micrococcus luteus) [µg/mL] | MIC [5] [µg/mL] | MIC80 (Saccharomyces cerevisiae) [µg/mL] | MIC80 (Aspergillus flavus) [µg/mL] | MIC80 (Candida albicans) [µg/mL] | MIC80 [6] [µg/mL] | MIC80 (Cyberlindnera jadinii) [µg/mL]
NC1CCN(c2c(F)cc3c(=O)c(C(=O)O)cn(C4CC4)c3c2Cl)C1 (stereo not given) [CLINAFLOXACIN] | 0.25 (≈ 0.683 µM) | 1 (≈ 2.73 µM) | 0.5 (≈ 1.37 µM) | 0.5 (≈ 1.37 µM) | 0.5 (≈ 1.37 µM) | 0.5 (≈ 1.37 µM) | 0.5 (≈ 1.37 µM) | 0.5 (≈ 1.37 µM) | 0.5 (≈ 1.37 µM) | 0.5 (≈ 1.37 µM) | – | – | – | – | –
CCn1cc(C(=O)O)c(=O)c2cc(F)c(N3CCN(Cc4nc5ccccc5n4Cc4ccc(F)cc4)CC3)cc21 | 8 (≈ 14.3 µM) | 16 (≈ 28.7 µM) | 16 (≈ 28.7 µM) | 8 (≈ 14.3 µM) | 8 (≈ 14.3 µM) | 8 (≈ 14.3 µM) | 32 (≈ 57.4 µM) | 32 (≈ 57.4 µM) | 8 (≈ 14.3 µM) | 32 (≈ 57.4 µM) | 8 (≈ 14.3 µM) | 16 (≈ 28.7 µM) | 8 (≈ 14.3 µM) | 32 (≈ 57.4 µM) | 8 (≈ 14.3 µM)
CCCCCCCCCCCCn1c(CN2CCN(c3cc4c(cc3F)c(=O)c(C(=O)O)cn4CC)CC2)nc2ccccc21 | 256 (≈ 414 µM) | 256 (≈ 414 µM) | 256 (≈ 414 µM) | 128 (≈ 207 µM) | 256 (≈ 414 µM) | 128 (≈ 207 µM) | 256 (≈ 414 µM) | 512 (≈ 829 µM) | 256 (≈ 414 µM) | 256 (≈ 414 µM) | 256 (≈ 414 µM) | 64 (≈ 104 µM) | 128 (≈ 207 µM) | 128 (≈ 207 µM) | 64 (≈ 104 µM)
OC(Cn1cncn1)(Cn1cncn1)c1ccc(F)cc1F [FLUCONAZOLE] | – | – | – | – | – | – | – | – | – | – | 16 (≈ 52.2 µM) | 256 (≈ 836 µM) | 1 (≈ 3.27 µM) | 4 (≈ 13.1 µM) | 8 (≈ 26.1 µM)
CCn1cc(C(=O)O)c(=O)c2cc(F)c(N3CCN(Cc4nc5ccc([N+](=O)[O-])cc5[nH]4)CC3)cc21 | 4 (≈ 8.09 µM) | 8 (≈ 16.2 µM) | 4 (≈ 8.09 µM) | 8 (≈ 16.2 µM) | 2 (≈ 4.04 µM) | 16 (≈ 32.4 µM) | 8 (≈ 16.2 µM) | 32 (≈ 64.7 µM) | 1 (≈ 2.02 µM) | 2 (≈ 4.04 µM) | 16 (≈ 32.4 µM) | 2 (≈ 4.04 µM) | 4 (≈ 8.09 µM) | 8 (≈ 16.2 µM) | 8 (≈ 16.2 µM)
CCCCCCCCn1c(CN2CCN(c3cc4c(cc3F)c(=O)c(C(=O)O)cn4C3CC3)CC2)nc2ccccc21 | 4 (≈ 6.97 µM) | 1 (≈ 1.74 µM) | 4 (≈ 6.97 µM) | 32 (≈ 55.8 µM) | 1 (≈ 1.74 µM) | 16 (≈ 27.9 µM) | 0.5 (≈ 0.872 µM) | 2 (≈ 3.49 µM) | 1 (≈ 1.74 µM) | 0.5 (≈ 0.872 µM) | 16 (≈ 27.9 µM) | 1 (≈ 1.74 µM) | 1 (≈ 1.74 µM) | 1 (≈ 1.74 µM) | 2 (≈ 3.49 µM)
CCn1cc(C(=O)O)c(=O)c2cc(F)c(N3CCN(Cc4nc5ccccc5n4Cc4ccccc4F)CC3)cc21 | 512 (≈ 918 µM) | 256 (≈ 459 µM) | 512 (≈ 918 µM) | 128 (≈ 230 µM) | 512 (≈ 918 µM) | 512 (≈ 918 µM) | 512 (≈ 918 µM) | 512 (≈ 918 µM) | 512 (≈ 918 µM) | 512 (≈ 918 µM) | 512 (≈ 918 µM) | 512 (≈ 918 µM) | 512 (≈ 918 µM) | 512 (≈ 918 µM) | 512 (≈ 918 µM)
O=C(O)c1cn(C2CC2)c2cc(N3CCN(CCc4nc5ccccc5[nH]4)CC3)c(F)cc2c1=O | 1 (≈ 2.1 µM) | 4 (≈ 8.41 µM) | 0.5 (≈ 1.05 µM) | 128 (≈ 269 µM) | 0.5 (≈ 1.05 µM) | 4 (≈ 8.41 µM) | 4 (≈ 8.41 µM) | 2 (≈ 4.21 µM) | 1 (≈ 2.1 µM) | 2 (≈ 4.21 µM) | 1 (≈ 2.1 µM) | 1 (≈ 2.1 µM) | 2 (≈ 4.21 µM) | 2 (≈ 4.21 µM) | 4 (≈ 8.41 µM)
CCn1cc(C(=O)O)c(=O)c2cc(F)c(N3CCN(Cc4nc5ccc(F)cc5[nH]4)CC3)cc21 | 8 (≈ 17.1 µM) | 16 (≈ 34.2 µM) | 8 (≈ 17.1 µM) | 8 (≈ 17.1 µM) | 4 (≈ 8.56 µM) | 16 (≈ 34.2 µM) | 16 (≈ 34.2 µM) | 32 (≈ 68.5 µM) | 0.5 (≈ 1.07 µM) | 2 (≈ 4.28 µM) | 0.5 (≈ 1.07 µM) | 0.5 (≈ 1.07 µM) | 2 (≈ 4.28 µM) | 1 (≈ 2.14 µM) | 0.25 (≈ 0.535 µM)
CCn1c(CN2CCN(c3cc4c(cc3F)c(=O)c(C(=O)O)cn4C3CC3)CC2)nc2ccccc21 | 0.5 (≈ 1.02 µM) | 128 (≈ 261 µM) | 8 (≈ 16.3 µM) | 0.5 (≈ 1.02 µM) | 2 (≈ 4.09 µM) | 256 (≈ 523 µM) | 2 (≈ 4.09 µM) | 128 (≈ 261 µM) | 2 (≈ 4.09 µM) | 0.5 (≈ 1.02 µM) | 128 (≈ 261 µM) | 4 (≈ 8.17 µM) | 2 (≈ 4.09 µM) | 2 (≈ 4.09 µM) | 2 (≈ 4.09 µM)
